{"source": "patent US5244916A", "about": "“Inhibition of respiratory burst using posttranslational modification inhibitors” (The Scripps Research Institute, priority 1992, dated 1993)", "key": {"[1]": {"system": "HL-60 cells (NADPH oxidase / respiratory burst)", "assay": "Prevention of compactin-inhibition of FMLP-stimulated O2- formation in HL-60 cells by mevalonic acid and other supplements", "assay_type": "cell-based", "settings": "for block in NADPH oxidase activity / cellular responsiveness after supplementation: compactin-treated HL-60 cells, exogenous supplement", "protocol": "(§1) HL-60 cells were maintained in stationary culture in RPMI 1640 medium (Gibco, Grand Island, NY) containing 10% fetal bovine serum at 37° C in an atmosphere of 95 air and 5% CO2. The cells (about 8×10^5 /ml) were differentiated into neutrophil-like cells by treatment with 1.3% DMSO for six days (Harris, et al., J. Leukocyte Biol. 37: 407-422 (1985)). The cells were treated with the indicated levels of compactin or lovastatin by addition of a 1,000-fold concentrated stock solution to the appropriate concentration on day 4 of differentiation. […] In studies of the protective effect of mevalonic acid, the compound was added as the mevalonolactone (Sigma Chemical Co., St. Louis, MO) at a concentration of 1 mM to the cell culture on days 4 to 6. Similarly, cholesterol was added in the form of LDL prepared according to the method of Curtiss and Edgington (Curtiss, et al., J. Biol. Chem. 257: 15213-15221 (1991)) at a final concentration of 50 μg/ml; ubiquinone (Sigma Chemical Co., St. Louis, MO) was added as Coenzyme Q-10 at a final concentration of 0.5 mM; and dolichol (Sigma Chemical Co., St. Louis, MO) was added as a dispersion in phosphatidylcholine at a final concentration of 0.5 mM (Cutts, et al., J. Cell Physiol. 139: 550-555 (1989)).\nO2 --formation by HL-60 cells was assessed by the SOD-sensitive reduction of cytochrome c. Cells were suspended at 1×10^7 /ml in Krebs-Ringer Hepes buffer with 5.5 mM glucose (KRHG) and 50-100μl of cells were added to a cuvette containing 100 μM cytochrome c (type III, Sigma Chemical Co., St. Louis, MO), ±300 μg/ml SOD (Sigma Chemical Co., St. Louis, MO) in 700-750 μl KRHG. Cytochalasin b (Sigma Chemical Co., St. Louis, MO) was added to a final concentration of 5 μg/ml, and the cells were incubated at 37° C. for five minutes while a stable baseline at a wavelength of 550 nm was obtained. O2 --formation was initiated by the addition of 1 μM N-formylmethionylleucylphenylalanine (FMLP; Sigma Chemical Co., St. Louis, MO) or 1μg/ml phorbol myristate acetate (PMA; Sigma Chemical Co., St. Louis, MO). Cytochrome c reduction at 550nm was continuously monitored and maximal rate and extent of the reaction calculated.\nInhibition of protein isoprenylation can interfere with LMWG function without inhibiting overall cellular function (Maltese, supra (1990)). Since compactin inhibits at the enzymatic step preceding mevalonic acid synthesis, one should be able to reverse effects of compactin due specifically to inhibition of this pathway by addition of exogenous mevalonic acid."}, "[2]": {"system": "HL-60 cells", "assay": "HL-60 cell viability by propidium iodide uptake (flow cytometry)", "protocol": "as §1, with “The cells were treated with the indicated levels of compactin or lovastatin by addition of a 1,000-fold concentrated stock solution to the appropriate concentration on day 4 of differentiation.” left out\nCell viability was determined by uptake of propidium iodide (537-059; Calbiochem-Behring Corp., La Jolla, CA), detected from the emission fluorescence at 625/35 nm using a DM560 dichronic mirror (Krishan, J. Cell. Biol. 66: 188-192 (1975)). Expression of N-formyl peptide receptor was determined using fluorescein-labeled N-CHONle-Leu-Phe-Nle-Tyr-Lys (Molecular Probes, Inc., Eugene, OR) essentially by the method of Sklar and Finney (Sklar and Finney, Cytometry 3: 161-165 (1982)). Specificity of ligand binding was determined in the presence of 4 mM unlabeled T-boc peptide. CD14 expression was determined using monoclonal antibody 3C10 at a dilution of 1:1,000 (see Goyert and Ferrero, in Leucocyte Typing III: White Cell Differentiation Antigens, McMichael, ed., Oxford Univ. Press, NY, pp. 613-619 (1988)), with detection using a fluorescein-labeled secondary antibody. Flow cytometric analyses were performed on a FACSIV (registered trademark of Becton-Dickinson, San Jose, CA) equipped with a 2W argon laser (Coherent Inc., Palo Alto, collected in list mode and analyzed using the Consort 30 program (Becton-Dickinson, San Jose, CA) after collecting 10,000 events."}, "[3]": {"system": "NADPH oxidase in HL-60 cells", "assay": "Inhibition of NADPH oxidase activation / O2- generation in HL-60 cells (stimulus not singled out)", "assay_type": "cell-based", "protocol": "as §1, with “(1989)). O2 --formation by HL-60 cells was assessed by the SOD-sensitive reduction of cytochrome c. Cells were suspended at 1×10^7 /ml in Krebs-Ringer Hepes buffer with 5.5 mM glucose (KRHG) and 50-100μl of cells were added to a cuvette containing 100 μM cytochrome c (type III, Sigma Chemical Co., St. Louis, MO), ±300 μg/ml SOD (Sigma Chemical Co., St. Louis, MO) in 700-750 μl KRHG. Cytochalasin b (Sigma Chemical Co., St. Louis, MO) was added to a final concentration of 5 μg/ml, and the cells were incubated at 37° C. for five minutes while a stable baseline at a wavelength of 550 nm was obtained. O2 --formation was initiated by the addition of 1 μM N-formylmethionylleucylphenylalanine (FMLP; Sigma Chemical Co., St. Louis, MO) or 1μg/ml phorbol myristate acetate (PMA; Sigma Chemical Co., St. Louis, MO). Cytochrome c reduction at 550nm was continuously monitored and maximal rate and extent of the reaction calculated.” for “(1989)).”"}}}
{"molecule": "dolichol", "values": [{"measurement": "effect on compactin blockade of oxidase activity", "setting": "[1]; 0.5 mM dolichol", "result": "no effect"}, {"measurement": "block in NADPH oxidase activity / cellular responsiveness after supplementation", "setting": "[1]", "result": "apparently not overcome"}]}
{"molecule": "CC[C@H](C)C(=O)O[C@H]1C[C@@H](C)C=C2C=C[C@H](C)[C@H](CC[C@@H]3C[C@@H](O)CC(=O)O3)[C@H]21", "note": "[lovastatin]", "values": [{"measurement": "cell viability when inhibitor added at day 1 of differentiation", "setting": "[2]", "result": "somewhat decreased"}, {"measurement": "inhibition of NADPH oxidase activation, effective concentrations", "setting": "[3]", "result": "micromolar concentrations"}, {"measurement": "ability of HL-60 cells to generate O2-", "setting": "[3]; response to receptor stimuli and downstream activators", "result": "markedly inhibited"}]}
{"molecule": "COC1=C(OC)C(=O)C(C/C=C(\\C)CC/C=C(\\C)CC/C=C(\\C)CC/C=C(\\C)CC/C=C(\\C)CC/C=C(\\C)CC/C=C(\\C)CC/C=C(\\C)CC/C=C(\\C)CCC=C(C)C)=C(C)C1=O", "note": "[ubiquinone]", "values": [{"measurement": "effect on compactin blockade of oxidase activity", "setting": "[1]; 0.5 mM ubiquinone", "result": "no effect"}, {"measurement": "block in NADPH oxidase activity / cellular responsiveness after supplementation", "setting": "[1]", "result": "apparently not overcome"}]}
{"molecule": "CC(C)CCC[C@@H](C)[C@H]1CC[C@H]2[C@@H]3CC=C4C[C@@H](O)CC[C@]4(C)[C@H]3CC[C@]12C", "note": "[cholesterol]", "values": [{"measurement": "effect on compactin blockade of oxidase activity", "setting": "[1]; 50 μg/ml LDL cholesterol", "result": "no effect"}, {"measurement": "FMLP-stimulated O2- formation, Extent", "setting": "[1]; 50 μg/ml cholesterol, no compactin, n = 2", "result": "99 % of control"}, {"measurement": "FMLP-stimulated O2- formation, Rate", "setting": "[1]; 50 μg/μl cholesterol, no compactin, n = 2", "result": "90 % of control"}, {"measurement": "block in NADPH oxidase activity / cellular responsiveness after supplementation", "setting": "[1]", "result": "apparently not overcome"}]}
{"molecule": "C[C@@](O)(CCO)CC(=O)O", "note": "[mevalonic acid]", "values": [{"measurement": "FMLP-stimulated O2- formation, Extent", "setting": "[1]; 1 mM mevalonate, no compactin", "result": "111 ± 8.0 % of control"}, {"measurement": "FMLP-stimulated O2- formation, Rate", "setting": "[1]; 1 mM mevalonate, no compactin", "result": "120 ± 10 % of control"}, {"measurement": "reversal of compactin inhibition of O2- formation", "setting": "[1]; 1 mM mevalonic acid (as mevalonolactone), 4 or 10 μM compactin", "result": "nearly completely reversed"}, {"measurement": "block in NADPH oxidase activity / cellular responsiveness after supplementation", "setting": "[1]", "result": "totally restored"}, {"measurement": "effect on control rate or extent of O2- formation", "setting": "[1]; no compactin", "result": "no consistent effect"}]}
